Read-outs that look alike come from different tables or passages of the source.

In assay [1] the test system is androgen dependent signaling (androgen sensitive organs). Kind of assay: Hershberger Assay. It counts as in vivo, rat. The procedure: The effect of AR antagonists on androgen dependent signaling in vivo was assessed using the Hershberger assay. In this assay, peripubertal castrated male Sprague-Dawley rats were administered AR antagonists described herein in the presence of testosterone (0.4 mg/kg testosterone propionate) and the weights of androgen dependent organs measured. Dosing was continued for 10 days and measurements taken 24 h after the last dose. The extent of antagonism of AR and consequent inhibition of organ growth was evaluated by comparison to the castration control. Compounds of Formula (I) were dosed orally QD and an endpoint assessment made by change in weight of 5 androgen sensitive organs (ASO): Paired Cowper's Glands (CG), Seminal Vesicles with Fluids and Coagulating Glands (SVCG), Glans Penis (GP), Ventral Prostate (VP) and Levator Ani-Bulbocavernosus Complex (LABC)). According to assay guidelines, statistically significant suppression of ASO is required in 2 of 5 organs for a compound to be classified as an anti-androgen (analysis was performed by t-test/Mann-Whitney).
Unless otherwise stated, compounds defined herein were administered at 30 mg/kg and flutamide (FT), positive control, at 3 mg/kg. All compounds were co-administered with testosterone propionate (TP, 0.4 mg/kg) which was also administered alone, untreated control, (castrated only rats served as the control for complete androgen blockade). A statistically significant change in ASO achieved in at least 2 of 5 organs was indicative of an active compound.

Assay [2] concerns the target AR T877A (Homo sapiens (Human), UniProt P10275, T878A). The assay is described as follows: Luciferase Transcriptional Reporter Assay, AR T877A (HepG2). It counts as cell-based. The procedure: HepG2 cells were maintained in EMEM supplemented with 10% FBS. One day before transfection, the media was changed to EMEM with 10% CSS. T-150 flasks were transiently transfected using 120 μL Lipofectamine 2000 (Life Technologies), 30 μg mutant cDNA (expression vector)—mutant cDNA tested were L701H, T877A, W741C and H874Y—and 40 μg 4×ARE-Luciferase (reporter vector) in OptiMEM and the flasks were incubated overnight. Cells were then trypsinized, counted and resuspended at 500,000 cells/mL. For agonist mode, the compounds of Formula (I) were serially diluted and 50 μL of the compound was added per well. 50 μL of the cells were added to each well and incubated for 48 hours. For antagonist mode, a final concentration of 90 pM R1881 was added to the diluted compounds and incubated for 48 hours. The plates were then assayed using SteadyGlo and read on the Envision. Percent Stimulation and Inhibition were determined and analyzed using GraphPad Prism.
F876L agonism was evident at 3 and 10 μM (5%) but zero at 30 μM. The antagonistic (IC50) and agonistic (EC50) values for each of the AR cDNA used in the reporter assays are summarized. All values are calculated relative to the activity of R1881 induced androgen receptor activity (n≥3). Also indicated are the maximal inhibition and extent of induction of androgen dependent signaling (%).
(In general: A reporter such as luciferase makes a cellular process visible.)

Assay [3] has as its system VCaP cells. The assay is described as follows: Prostate Cancer Cell Viability Assay-VCaP. It counts as cell-based. The conditions noted are these: Homo sapiens, 120 h, 5 days, CellTiter-Glo. The procedure:
VCaP cells were counted and seeded into black 384-well plates with clear bottoms at a concentration of 125,000 cells per mL in phenol red-free DMEM containing 10% Charcoal Stripped Serum. 16 μL of the suspension was added per well and incubated for 48 h to allow the cells to adhere. After 48 hours, a 12 point serial semilog dilution of each compound was added to the cells in 16 μL at a final concentration of 100 μM to 0.0003 μM. The compounds of Formula (I) were also run in antagonist mode using 30 pM R1881 in which 8 μL of the compound was added to the cells followed by 8 μL of R1881. After 5 days of incubation at 37° C., 16 μL Of CellTiter-Glo (Promega) was added to the cells and the relative luminescence units (RLUs) of each well determined using the Envision. The percent stimulation and % inhibition were determined for each sample and plotted using GraphPad Prism.
In general terms: In ATP-based viability assays light output follows the ATP content of the culture.

Assay [4] addresses F876L mutant Androgen Receptor (AR-F876L) (Homo sapiens (Human), UniProt P10275, F877L). Kind of assay: LNCaP-AR-F876L ANT reporter assay (antagonist mode). It counts as cell-based.
Assay [5] deals with GR (human) (Homo sapiens (Human), UniProt P04150). Kind of assay: Radioligand binding to GR. The conditions noted are these: [3H]dexamethasone, IM-9 cells (cytosol). The procedure:
Radioligand binding assays were performed with the cell extracts and ligands as detailed below. Complete methodology is contained within the cited publications. Kd values were determined by Non-Specific Incubation Detection Method.
GR (human) (agonist radioligand) IM-9 cells (cytosol)
[^3H]dexamethasone 1.5 nM 1.5 nM triamcinolone (10 μM) 6 h 4° C. Scintillation counting (Clark, A. F et al. (1996) Invest. Ophtalmol. Vis. Sci., 37: 805-813).
The results are expressed as a percent of control specific binding measured specific binding*100 control specific binding and as a percent inhibition of control specific binding 100-(measured specific binding*100) control specific binding obtained in the presence of compound.
The IC50 values (concentration causing a half-maximal inhibition of control specific binding) and Hill coefficients (nH) were determined by non-linear regression analysis of the competition curves generated with mean replicate values using Hill equation curve fitting. Y=D+[A−D] 1+(C/C50)nH […]
The inhibition constants (Ki) were calculated using the Cheng Prusoff equation: Ki=[…]
Radioligand binding inhibition and affinity calculations were determined using [^3H]-methyltrienolone, [^3H]-dexamethasone and [^3H]-estradiol for AR, GR and ER, respectively. […]

Setting [6] is: 30 mg/kg orally QD, 10 days, with TP 0.4 mg/kg, castrated rats, mean ± SD (n=6).

AR T877A, sequence (P10275 whole entry T878A): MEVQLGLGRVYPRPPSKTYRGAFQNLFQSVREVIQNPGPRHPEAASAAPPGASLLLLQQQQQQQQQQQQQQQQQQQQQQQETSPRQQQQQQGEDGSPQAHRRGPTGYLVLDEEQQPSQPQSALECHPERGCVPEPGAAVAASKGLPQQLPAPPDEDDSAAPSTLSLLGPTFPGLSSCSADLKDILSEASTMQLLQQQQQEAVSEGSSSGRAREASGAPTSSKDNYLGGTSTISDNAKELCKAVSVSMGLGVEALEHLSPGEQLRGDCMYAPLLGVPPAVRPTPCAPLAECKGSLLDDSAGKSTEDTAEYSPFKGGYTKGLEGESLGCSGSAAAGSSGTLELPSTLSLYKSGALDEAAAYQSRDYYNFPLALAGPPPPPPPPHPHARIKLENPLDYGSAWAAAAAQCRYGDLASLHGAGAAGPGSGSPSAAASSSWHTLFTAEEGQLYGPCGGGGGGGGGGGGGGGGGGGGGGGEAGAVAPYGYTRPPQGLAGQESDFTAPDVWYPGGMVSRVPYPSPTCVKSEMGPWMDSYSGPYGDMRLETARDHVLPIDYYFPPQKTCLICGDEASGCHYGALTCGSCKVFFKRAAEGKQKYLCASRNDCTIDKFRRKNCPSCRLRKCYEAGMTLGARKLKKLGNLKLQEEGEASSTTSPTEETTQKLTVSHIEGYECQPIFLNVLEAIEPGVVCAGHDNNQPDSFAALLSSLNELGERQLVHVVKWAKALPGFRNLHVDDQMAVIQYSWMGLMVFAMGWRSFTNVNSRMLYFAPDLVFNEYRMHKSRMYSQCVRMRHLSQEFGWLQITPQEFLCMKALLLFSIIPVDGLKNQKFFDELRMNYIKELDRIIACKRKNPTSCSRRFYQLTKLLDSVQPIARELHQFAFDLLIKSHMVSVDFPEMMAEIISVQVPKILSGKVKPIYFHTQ
F876L mutant Androgen Receptor (AR-F876L), sequence (P10275 whole entry F877L): as the sequence (P10275 whole entry T878A) above, with F877L, A878T counted along it
GR (human), sequence (P04150 whole entry): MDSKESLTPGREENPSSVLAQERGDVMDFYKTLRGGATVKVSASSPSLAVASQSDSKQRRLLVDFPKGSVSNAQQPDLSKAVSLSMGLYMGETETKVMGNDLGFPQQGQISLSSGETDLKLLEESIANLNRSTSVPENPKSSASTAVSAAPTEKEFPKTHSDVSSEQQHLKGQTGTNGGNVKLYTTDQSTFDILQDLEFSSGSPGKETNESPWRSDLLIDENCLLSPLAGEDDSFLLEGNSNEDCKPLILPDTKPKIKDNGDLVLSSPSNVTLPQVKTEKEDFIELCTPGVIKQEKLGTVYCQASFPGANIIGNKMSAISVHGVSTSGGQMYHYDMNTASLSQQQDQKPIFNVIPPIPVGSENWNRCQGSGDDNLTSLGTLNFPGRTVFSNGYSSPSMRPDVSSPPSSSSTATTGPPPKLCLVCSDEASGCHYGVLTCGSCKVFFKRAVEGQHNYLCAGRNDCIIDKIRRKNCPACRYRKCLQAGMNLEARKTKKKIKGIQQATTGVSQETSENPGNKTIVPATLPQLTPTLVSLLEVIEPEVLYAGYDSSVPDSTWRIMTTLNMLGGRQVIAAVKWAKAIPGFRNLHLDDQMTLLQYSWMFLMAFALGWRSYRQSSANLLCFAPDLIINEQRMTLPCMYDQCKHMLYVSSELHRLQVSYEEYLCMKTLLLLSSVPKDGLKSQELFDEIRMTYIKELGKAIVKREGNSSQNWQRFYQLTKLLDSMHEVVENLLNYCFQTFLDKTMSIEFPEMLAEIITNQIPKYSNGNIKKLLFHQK

As a reminder, the EC50 is the midpoint of the concentration-response curve. One may read the Emax as the greatest response seen or fitted, relative to the assay's reference. Usually IC50 stands for the point on the concentration scale where inhibition reaches its midpoint. For the compound `N#Cc1ncc(N2C(=O)C3(CCC3)N(c3ccc(OC4CCNCC4)nc3)C2=S)cc1C(F)(F)F` [Cpd 43, 5-[5-oxo-8-[6-(4-piperidyloxy)-3-pyridyl]-7-thioxo-6,8-diazaspiro[3.4]octan-6-yl]-3-(trifluoromethyl)pyridine-2-carbonitrile], the “ASO Organ Growth (% of TP control) SVCG” value in assay [1] (setting [6]) is reported as 26.0 ± 17.8 % of TP control. The “ASO Organ Growth (% of TP control) VP” value in assay [1] (setting [6]) is recorded as 24.1 ± 48.1 % of TP control. In assay [1] (all 5 organs, p≤0.05, 30 mg/kg), the “Reduction in ASO versus TP control” value is “significant reduction”. The EC50 in assay [2] (HepG2, agonist mode, 48 hours, read-out: Agonism EC50, AR construct T877A) is 2290 nM. For the same compound, the Emax in assay [2] (HepG2, agonist mode, relative to R1881, read-out: Agonism % Emax, AR construct T877A) amounted to 10%; in assay [2] (HepG2, antagonist mode, maximal inhibition, read-out: Antagonism % Emax, AR construct T877A) it was 80%. Further, the 50% inhibitory concentration (IC50) in assay [2] (HepG2, antagonist mode, 90 pM R1881, 48 hours, read-out: Antagonism IC50, AR construct T877A) was 6810 nM; in assay [3], 270 nM; in assay [5] it was more than 30000 nM. In addition, in assay [4] (antagonist mode, pIC50 = −Log10(IC50 in Molar)), the “LNCaP-AR-F876L ANT pIC50” value is 7.43. In addition, in assay [4] (maximum % inhibition of R1881 control response over the tested concentration range), the “LNCaP-AR-F876L ANT MAX % Inh” value amounted to 100.0%.

The record behind these values is patent publication US10981926B2 (Janssen Pharmaceutica NV, priority 2016, dated 2021).
